Results published in publication PMC7782785, “Outer-membrane-acting peptides and lipid II-targeting antibiotics cooperatively kill Gram-negative pathogens” (Communications Biology, 2021).
Values after ≈ are worked out from the molar mass of the structure shown.

Tests used:
K. pneumoniae ATCC700603 = assay: Synergy test, checkerboard broth microdilution; assay type: cell-based
Description: (§1) For the synergy test, standard checkerboard broth microdilution assays were conducted to test the synergistic effect of combined antimicrobials using the same condition as before[51],[56]. […] The initial concentration of both peptides was their individual MIC. 50 µL fresh bacterial suspension prepared as above was added to the wells already containing the antimicrobial compound mixture to achieve 100 µL final volume per well.
(§2) The fractional inhibitory concentration (FIC) indices[57] were calculated using the formula FICI = FICa + FICb = MICac/MICa + MICbc/MICb, to determine whether the combination is additive, synergistic or antagonistic[51],[57]. The MICa and MICb is the MIC of compound A or B alone, respectively. MICac is the MIC of compound A in combination with compound B and MICbc is the MIC of compound B when it was combined with compound A. The FIC corresponds to the MIC of a compound in combination with the other compound, divided by the MIC of the compound alone. FICa is FIC of compound A while FICb is FIC of compound B. The FICI was interpreted according to EUCAST[58] as follows: synergistic, FICI ≤ 0.5; additive,0.5 < FICI ≤ 1; indifferent, 1 < FICI < 2; antagonistic, FICI ≥ 2.

E. aerogenes LMG 02094 = assay: microbe, parasite or virus in culture; settings: Klebsiella aerogenes, LMG02094
Description: (§3) MIC tests were performed in triplicate by liquid growth inhibition microdilution assays in sterile polypropylene microtiter plates according to the Clinical and Laboratory Standards Institute (CLSI) guideline for bacteria that grow aerobically. Briefly, the indicator strains were first streaked on the appropriate agar plate, and then single colonies were picked and incubated overnight in liquid broth. The final inoculum of bacteria was 5*10^5 CFU/mL prepared in CAMHB (cationic adjusted Mueller–Hinton broth, Sigma-Aldrich) or CAMHB plus 5% of lysed horse blood (TCS Biosciences, Buckingham, UK) in the case of S. pneumoniae. The antimicrobials were 2-fold serially diluted and 50 µL diluted bacterial suspension was added to each well to make the final volume 100 µL. The microtiter plates and the count plates were incubated at 37 °C for 16–20 h without shaking. Growth inhibition was assessed by measuring the OD600 using a microplate reader (Tecan Infinity F200). The lowest concentration of the antimicrobials that inhibits visible growth of the indicator strain is identified as the MIC value.
(§4) The condition for the tests and the analysis of the plates were performed as described above for the MIC tests.

E. coli LMG 15862 = assay: microbe, parasite or virus in culture; settings: Escherichia coli, LMG15862
Description: as §3, §4

A. baumannii LMG 01041 = assay: microbe, parasite or virus in culture; settings: Acinetobacter baumannii, LMG01041
Description: as §3, §4

K. pneumoniae LMG 20218 = assay: microbe, parasite or virus in culture; settings: Klebsiella pneumoniae, LMG20218
Description: as §3, §4

P. aeruginosa LMG 6395 = assay: microbe, parasite or virus in culture; settings: Pseudomonas aeruginosa, LMG6395
Description: as §3, §4

[1] = test system: five Gram-negative strains; assay: Bactericidal effect testing; assay type: cell-based; settings: 10-fold MIC (alone or in combination), CAMHB, 37 °C, 3 h, plating on LB agar; no colonies of any of the five strains
Description: After that, 50 µL of a 10^3-fold diluted sample were plated on LB agar[59].

P. aeruginosa PA14 [2] = assay: Murine abscess model; assay type: in vivo, BALB/c mice
Description: An overnight P. aeruginosa PA14 culture was inoculated into fresh LB medium (100-fold dilution) and grown until an OD600 of 1.0. The culture was washed twice and resuspended in 0.9% NaCl to 10^8 CFU/mL. Four groups of five 6-week-old female BALB/c mice were used. […] After 24 h, the mice were sacrificed and the abscesses were excised to count the CFU. The bacterial loads were determined by serial dilution and plating. All animal experiments complied with the US and Chinese national guidelines for the use of animals in research. The protocol was approved by the Animal Care and Use Committee of the College of Life Sciences, Nankai University (permission number NK-04-2012). All procedures involving animals were performed after animals were anesthetized. The experimental results were analyzed with the GraphPad Prism software.

[3] = test system: K. pneumoniae ATCC BAA-2524; assay type: cell-based; settings: checkerboard
Description: as §1, §2

K. pneumoniae B1945 = assay type: cell-based; settings: checkerboard
Description: as §1, §2

E. coli ATCC 25922 = assay type: cell-based; settings: checkerboard
Description: as §1, §2

A. baumannii B2026 = assay type: cell-based; settings: checkerboard
Description: as §1, §2

A. baumannii ATCC 17978 = assay type: cell-based; settings: checkerboard
Description: as §1, §2

P. aeruginosa B1954 = assay type: cell-based; settings: checkerboard
Description: as §1, §2

P. aeruginosa PA14 [4] = assay type: cell-based; settings: checkerboard
Description: as §1, §2

[5] = test system: P. aeruginosa ATCC BAA-2108; assay type: cell-based; settings: checkerboard
Description: as §1, §2

E. coli ATCC BAA-2452 = assay type: cell-based; settings: checkerboard
Description: as §1, §2

E. coli B1927 = assay type: cell-based; settings: checkerboard
Description: as §1, §2

[6] = test system: A. baumannii ATCC BAA-1605; assay type: cell-based; settings: checkerboard
Description: as §1, §2

P. aeruginosa ATCC 27853 = assay type: cell-based; settings: checkerboard
Description: as §1, §2

CN[C@H](CC(C)C)C(=O)N[C@H]1C(=O)N[C@@H](CC(N)=O)C(=O)N[C@H]2C(=O)N[C@H]3C(=O)N[C@H](C(=O)N[C@H](C(=O)O)c4cc(O)cc(O)c4-c4cc3ccc4O)[C@H](O)c3ccc(c(Cl)c3)Oc3cc2cc(c3O[C@@H]2O[C@H](CO)[C@@H](O)[C@H](O)[C@H]2O[C@H]2C[C@](C)(N)[C@H](O)[C@H](C)O2)Oc2ccc(cc2Cl)[C@H]1O [Vancomycin]
MICAB: MIC of vancomycin in combination with D-11 at the MICAC concentration (K. pneumoniae ATCC700603): 11.04 µM
MIC (E. aerogenes LMG 02094): 192 µM (≈ 278 µg/mL)
MIC (E. coli LMG 15862): 64 µM (≈ 92.8 µg/mL)
MIC (A. baumannii LMG 01041): 32 µM (≈ 46.4 µg/mL)
MIC (K. pneumoniae LMG 20218): 128 µM (≈ 186 µg/mL)
MIC (P. aeruginosa LMG 6395): 128 µM (≈ 186 µg/mL)
bactericidal effect [1]: bactericidal
log10 CFU per abscess (P. aeruginosa PA14 [2]; mouse 1 of 5, P. aeruginosa PA14 s.c., treatment injected into infection area 1 h post-infection, 24 h, vancomycin 3 mg/kg, D-11 10 mg/kg, or both): 8.341 log10 CFU per abscess
log10 CFU per abscess (P. aeruginosa PA14 [2]; mouse 2 of 5, same conditions): 7.354 log10 CFU per abscess
log10 CFU per abscess (P. aeruginosa PA14 [2]; mouse 3 of 5, same conditions): 7.321 log10 CFU per abscess
log10 CFU per abscess (P. aeruginosa PA14 [2]; mouse 4 of 5, same conditions): 7.43 log10 CFU per abscess
log10 CFU per abscess (P. aeruginosa PA14 [2]; mouse 5 of 5, same conditions): 7.5121 log10 CFU per abscess
MICAB: MIC of vancomycin in combination with D-11 at the MICAC concentration [3]: 11.04 µM
MICAB: MIC of vancomycin in combination with D-11 at the MICAC concentration (K. pneumoniae B1945): 11.04 µM
MICAB: MIC of vancomycin in combination with D-11 at the MICAC concentration (E. coli ATCC 25922): 5.52 µM
MICAB: MIC of vancomycin in combination with D-11 at the MICAC concentration (A. baumannii B2026): 2.76 µM
MICAB: MIC of vancomycin in combination with D-11 at the MICAC concentration (A. baumannii ATCC 17978): 5.52 µM
MICAB: MIC of vancomycin in combination with D-11 at the MICAC concentration (P. aeruginosa B1954): 44.15 µM
MICAB: MIC of vancomycin in combination with D-11 at the MICAC concentration (P. aeruginosa PA14 [4]): 32 µM
MICAB: MIC of vancomycin in combination with D-11 at the MICAC concentration [5]: 44.15 µM
MICAB: MIC of vancomycin in combination with D-11 at the MICAC concentration (E. coli ATCC BAA-2452): 2.76 µM
MICAB: MIC of vancomycin in combination with D-11 at the MICAC concentration (E. coli B1927): 5.52 µM
MICAB: MIC of vancomycin in combination with D-11 at the MICAC concentration [6]: 2.76 µM
MICAB: MIC of vancomycin in combination with D-11 at the MICAC concentration (P. aeruginosa ATCC 27853): 11.04 µM
